Consider 73 compounds from ChEMBL document CHEMBL1697681, “Predicting phospholipidosis using machine learning” (Mol Pharm, 2010).

This series has as its system Phospholipidosis. Description: Literature-mined public compounds from Lowe et al phospholipidosis modelling dataset.

In the case of `CCC(c1ccc(OCCN(CC)CC)cc1)C(CC)c1ccc(OCCN(CC)CC)cc1` (stereo not drawn) [CORALGIL], the Phospholipidosis result is recorded as “Positive”.
Regarding `CN1CCN(C(c2ccccc2)c2ccccc2)CC1` [CYCLIZINE], the Phospholipidosis result was “Positive”.
As for `CC(=O)O[C@]1(C(C)=O)CC[C@H]2[C@@H]3C=C(Cl)C4=CC(=O)[C@@H]5C[C@@H]5[C@]4(C)[C@H]3CC[C@@]21C` [CYPROTERONE ACETATE], the Phospholipidosis result is given as “Negative”.
For the compound `O=C1CN(/N=C/c2ccc(-c3ccc([N+](=O)[O-])cc3)o2)C(O)=N1` [DANTROLENE], the Phospholipidosis entry was “Negative”.
`CC(=O)N(O)CCCCCNC(=O)CCC(=O)N(O)CCCCCNC(=O)CCC(=O)N(O)CCCCCN` [DEFEROXAMINE]: the Phospholipidosis result was “Negative”.
With `CN(C)[C@@H]1C(O)=C(C(N)=O)C(=O)[C@@]2(O)C(O)=C3C(=O)c4c(O)ccc(Cl)c4[C@@H](O)[C@H]3C[C@@H]12` [DEMECLOCYCLINE], the Phospholipidosis result is reported as “Negative”.
As to `CNCCCN1c2ccccc2CCc2ccccc21` [DESIPRAMINE], the Phospholipidosis result is “Positive”.
With `CN1C(=O)CN=C(c2ccccc2)c2cc(Cl)ccc21` [DIAZEPAM], the Phospholipidosis entry is “Negative”.
With `NC[C@@H]1CC[C@@H](N)[C@@H](O[C@H]2[C@H](O)[C@@H](O[C@H]3O[C@H](CO)[C@@H](O)[C@H](N)[C@H]3O)[C@H](N)C[C@@H]2N)O1` [DIBEKACIN], the Phospholipidosis entry was “Positive”.
As for `O=C(O)Cc1ccccc1Nc1c(Cl)cccc1Cl` [DICLOFENAC], the Phospholipidosis result is given as “Negative”.
The result for `O=C(O)c1cc(-c2ccc(F)cc2F)ccc1O` [DIFLUNISAL] reads “Negative”; that for `CC(C)N(CCC(CCN1CCCCC1)(C(N)=O)c1ccccc1Cl)C(C)C` (stereo not drawn) [DISOBUTAMIDE], “Positive”.
The result for `COc1cc2c(cc1OC)C(=O)C(CC1CCN(Cc3ccccc3)CC1)C2` (stereo not drawn) [DONEPEZIL] reads “Negative”.
Turning to `CCN1CC(CCN2CCOCC2)C(c2ccccc2)(c2ccccc2)C1=O` (stereo not drawn) [DOXAPRAM], the Phospholipidosis entry was “Negative”.
Turning to `COc1cccc2c1C(=O)c1c(O)c3c(c(O)c1C2=O)C[C@@](O)(C(=O)CO)C[C@@H]3O[C@H]1C[C@H](N)[C@H](O)[C@H](C)O1` [DOXORUBICIN], the Phospholipidosis entry is reported as “Negative”.
`C[C@H]1c2cccc(O)c2C(=O)C2=C(O)[C@]3(O)C(=O)C(C(N)=O)=C(O)[C@@H](N(C)C)[C@@H]3[C@@H](O)[C@@H]21.O` [DOXYCYCLINE]: the Phospholipidosis result is listed as “Negative”.
As for `CC[C@H]1CN2CCc3cc(OC)c(OC)cc3[C@@H]2C[C@@H]1C[C@H]1NCCc2cc(OC)c(OC)cc21` [EMETINE], the Phospholipidosis entry is given as “Positive”.
`CC[C@H]1OC(=O)[C@H](C)[C@@H](O[C@H]2C[C@@](C)(OC)[C@@H](O)[C@H](C)O2)[C@H](C)[C@@H](O[C@@H]2O[C@H](C)C[C@H](N(C)C)[C@H]2O)[C@](C)(O)C[C@@H](C)C(=O)[C@H](C)[C@@H](O)[C@]1(C)O` [ERYTHROMYCIN]: the Phospholipidosis entry is reported as “Positive”.
As to `C#C[C@]1(O)CC[C@H]2[C@@H]3CCc4cc(O)ccc4[C@H]3CC[C@@]21C` [ETHINYL ESTRADIOL], the Phospholipidosis result is “Negative”.
Take `CCSCC[C@H](N)C(=O)O` [ETHIONINE]: the Phospholipidosis entry is reported as “Negative”.
As for `CCOC(=O)C1N=C(c2ccccc2F)c2cc(Cl)ccc2NC1=O` (stereo not drawn) [ETHYL LOFLAZEPATE], the Phospholipidosis result is “Positive”.
For `COc1cc([C@@H]2c3cc4c(cc3[C@@H](O[C@@H]3O[C@@H]5CO[C@@H](C)O[C@H]5[C@H](O)[C@H]3O)[C@H]3COC(=O)[C@H]23)OCO4)cc(OC)c1O` [ETOPOSIDE], the Phospholipidosis result is on record as “Negative”.
Take `NC(N)=Nc1nc(CSCCC(N)=NS(N)(=O)=O)cs1` [FAMOTIDINE]: the Phospholipidosis result is on record as “Negative”.
The result for `NC(=O)OCC(COC(N)=O)c1ccccc1` [FELBAMATE] reads “Negative”; that for `CCNC(C)Cc1cccc(C(F)(F)F)c1` (stereo not drawn) [FENFLURAMINE], “Positive”; that for `CC(C)OC(=O)C(C)(C)Oc1ccc(C(=O)c2ccc(Cl)cc2)cc1` [FENOFIBRATE], “Negative”.
Take `O=C(NCC1CCCCN1)c1cc(OCC(F)(F)F)ccc1OCC(F)(F)F` (stereo not drawn) [FLECAINIDE]: the Phospholipidosis result is given as “Negative”.
As to `CNCCC(Oc1ccc(C(F)(F)F)cc1)c1ccccc1` (stereo not drawn) [FLUOXETINE], the Phospholipidosis result is “Positive”.
Take `CC(C)C(=O)Nc1ccc([N+](=O)[O-])c(C(F)(F)F)c1` [FLUTAMIDE]: the Phospholipidosis entry is listed as “Negative”.
For `COCCCC/C(=N\OCCN)c1ccc(C(F)(F)F)cc1` [FLUVOXAMINE] the value was “Positive”.
Regarding `NS(=O)(=O)c1cc(C(=O)O)c(NCc2ccco2)cc1Cl` [FUROSEMIDE], the Phospholipidosis entry is listed as “Negative”.
Consider `Cc1ccc(C)c(OCCCC(C)(C)C(=O)O)c1` [GEMFIBROZIL], for which the Phospholipidosis result is “Negative”.
Regarding `CN[C@@H]1[C@@H](O)[C@@H](O[C@@H]2[C@@H](O)[C@H](O[C@H]3O[C@H]([C@@H](C)NC)CC[C@H]3N)[C@@H](N)C[C@H]2N)OC[C@]1(C)O` [GENTAMICIN C1], the Phospholipidosis entry is listed as “Positive”.
On to `CN[C@@H]1[C@@H](O)[C@@H](O[C@@H]2[C@@H](O)[C@H](O[C@H]3O[C@H](C(C)N)CC[C@H]3N)[C@@H](N)C[C@H]2N)OC[C@]1(C)O` (stereo partly drawn) [GENTAMICIN C2], for which the Phospholipidosis entry is given as “Positive”.
Regarding `N[C@H]1C(O)O[C@H](CO)[C@@H](O)[C@@H]1O` (stereo partly drawn) [GLUCOSAMINE], the Phospholipidosis result is listed as “Negative”.
As to `O=C(CCCN1CCC(O)(c2ccc(Cl)cc2)CC1)c1ccc(F)cc1` [HALOPERIDOL], the Phospholipidosis entry is on record as “Positive”.
Turning to `CN1CCCN(C(c2ccccc2)c2ccc(Cl)cc2)CC1` (stereo not drawn) [HOMOCHLORCYCLIZINE], the Phospholipidosis entry is “Positive”.
For `NN` [HYDRAZINE], the Phospholipidosis entry is recorded as “Negative”.
The result for `NC(=O)NO` [HYDROXYUREA] reads “Negative”; that for `OCCOCCN1CCN(C(c2ccccc2)c2ccc(Cl)cc2)CC1` (stereo not drawn) [HYDROXYZINE], “Positive”.
For the compound `CN(C)CCCN1c2ccccc2CCc2ccccc21` [IMIPRAMINE], the Phospholipidosis result is “Positive”.
On to `O=C(NC1CCN(CCc2c[nH]c3ccccc23)CC1)c1ccccc1` [INDORAMIN], for which the Phospholipidosis entry was “Positive”.
`CC(=O)N1CCN(c2ccc(OCC3COC(Cn4ccnc4)(c4ccc(Cl)cc4Cl)O3)cc2)CC1` (stereo not drawn) [KETOCONAZOLE]: the Phospholipidosis result was “Positive”.
For `CC(CCc1ccccc1)NCC(O)c1ccc(O)c(C(N)=O)c1` (stereo not drawn) [LABETALOL], the Phospholipidosis entry is “Positive”.
Take `C[C@H]1COc2c(N3CCN(C)CC3)c(F)cc3c(=O)c(C(=O)O)cn1c23.C[C@H]1COc2c(N3CCN(C)CC3)c(F)cc3c(=O)c(C(=O)O)cn1c23.O` [LEVOFLOXACIN]: the Phospholipidosis result is recorded as “Negative”.
Regarding `CCN(CC)CC(=O)Nc1c(C)cccc1C` [LIDOCAINE], the Phospholipidosis entry is given as “Positive”.
In the case of `CCOC(=O)N1CCC(=C2c3ccc(Cl)cc3CCc3cccnc32)CC1` [LORATADINE], the Phospholipidosis result is “Positive”.
Turning to `CCN(CC)C(=O)[C@@H]1C=C2c3cccc4[nH]cc(c34)C[C@H]2N(C)C1` [LYSERGIDE], the Phospholipidosis entry is “Positive”.
Consider `CNCCCC12CCC(c3ccccc31)c1ccccc12` [MAPROTILINE], for which the Phospholipidosis entry is on record as “Positive”.
On to `Cc1cccc(CN2CCN(C(c3ccccc3)c3ccc(Cl)cc3)CC2)c1` (stereo not drawn) [MECLIZINE], for which the Phospholipidosis entry is given as “Positive”.
For the compound `CC12CC3CC(C)(C1)CC(N)(C3)C2` [MEMANTINE], the Phospholipidosis result is reported as “Positive”.
Consider `CC1=CC(=O)c2ccccc2C1=O` [MENADIONE], for which the Phospholipidosis entry is reported as “Negative”.
For `CN1CCCCC1CCN1c2ccccc2Sc2ccc([S+](C)[O-])cc21` (stereo not drawn) [MESORIDAZINE], the Phospholipidosis entry was “Positive”.
Take `CN(C)C(=N)N=C(N)N` [METFORMIN]: the Phospholipidosis result is “Negative”.
With `CCC(=O)C(CC(C)N(C)C)(c1ccccc1)c1ccccc1` (stereo not drawn) [METHADONE], the Phospholipidosis entry is on record as “Negative”.
As for `CN(Cc1cnc2nc(N)nc(N)c2n1)c1ccc(C(=O)N[C@@H](CCC(=O)O)C(=O)O)cc1` [METHOTREXATE], the Phospholipidosis entry is “Negative”.
Take `C[C@](N)(Cc1ccc(O)c(O)c1)C(=O)O` [METHYLDOPA]: the Phospholipidosis result is on record as “Negative”.
With `CN1CCN2c3ccccc3Cc3ccccc3C2C1` (stereo not drawn) [MIANSERIN], the Phospholipidosis result is on record as “Positive”.
Turning to `CCN[C@@H]1C[C@H](N)[C@@H](O[C@H]2OC(CN)=CC[C@H]2N)[C@H](O)[C@H]1O[C@H]1OC[C@](C)(O)[C@H](NC)[C@H]1O` [NETILMICIN], the Phospholipidosis entry was “Positive”.
Turning to `Clc1ccc(C(c2ccccc2)N2CCNCC2)cc1` (stereo not drawn) [NORCHLORCYCLIZINE], the Phospholipidosis entry is “Positive”.
`CNCCC=C1c2ccccc2CCc2ccccc21` [NORTRIPTYLINE]: the Phospholipidosis entry is “Positive”.
For `CN(C)CCON=C1c2ccccc2CCc2ccccc21` [NOXIPTILINE], the Phospholipidosis entry is recorded as “Positive”.
For `CC1COc2c(N3CCN(C)CC3)c(F)cc3c(=O)c(C(=O)O)cn1c23` (stereo not drawn) [OFLOXACIN] the value was “Negative”; for `NCCc1cc(O)c(O)cc1O` [OXIDOPAMINE], “Positive”; for `C1CCC(C(CC2CCCCN2)C2CCCCC2)CC1` (stereo not drawn) [PERHEXILINE], “Positive”.
Regarding `CCOc1ccc(NC(C)=O)cc1` [PHENACETIN], the Phospholipidosis entry is “Positive”.
For `CCC1(c2ccccc2)C(=O)NC(=O)NC1=O` [PHENOBARBITAL], the Phospholipidosis result is reported as “Negative”.
In the case of `CC(C)(N)Cc1ccccc1` [PHENTERMINE], the Phospholipidosis result is “Positive”.
The result for `CNC(=O)Oc1ccc2c(c1)[C@]1(C)CCN(C)[C@@H]1N2C` [PHYSOSTIGMINE] reads “Negative”; that for `Cc1cccc(Nc2cc(Cl)nc(SCC(=O)O)n2)c1C` [PIRINIXIC ACID], “Negative”; that for `CN1C(C(=O)Nc2ccccn2)=C(O)c2ccccc2S1(=O)=O` [PIROXICAM], “Negative”.
On to `CC(Cc1ccccc1)NCCC(c1ccccc1)c1ccccc1` (stereo not drawn) [PRENYLAMINE], for which the Phospholipidosis entry is recorded as “Positive”.
As for `CCN(CC)CCNC(=O)c1ccc(N)cc1` [PROCAINAMIDE], the Phospholipidosis result is given as “Negative”.
